Ends that are not written are not given here.
How the values were obtained:
[1] = tested on: T cell line with MGAR APC; experiment: Antigen Processing Independent Presentation System (APIPS) assay, fresh or fixed MGAR APC; type: cell-based, DR2 mice; conditions: DR2 T cell line, IFN-γ, 24 h
Description: FIG. 4: Identification of apitopes within HIP-9FL. DR2 mice were immunized with HIP-9FL-KKK and a T cell line was established. Ten days after immunization the LN and spleens were harvested and cultured with different concentrations of peptide (0.1-1-2.5 and 5 μg/ml); 2×10^6 cells/ml APCs+1×10^6 cells/ml CD4 T cells per well. At day 7 the cells were re-stimulated with the same concentrations of peptide. On day 21 an APIPS test was done using commercial APC (MGAR). After 24 h, antigen-induced T cell activation was measured by IFN-γ ELISA and shown as OD values. The graph represents the mean of duplicate measurements±SEM. LN, lymph nodes; APC, Antigen presenting cell; APIPS, Antigen Processing Independent Presentation System.
Antigen-specific clones or TCL were tested for their reactivity to the peptides, presented by fixed or not fixed (fresh) cells (VAVY or MGAR) (=APCs). 5×10^4 cells from the individual clones were cultured with 10 μg/ml peptide and 5×10^4 fixed or fresh APCs. In the case of TCL, 5×10^4 cells were cultured with 10 μg/ml and 25 μg/ml peptide and 2.5×10^4 fixed or fresh APCs. To fixate APCs, cells were incubated with 0.5% paraformaldehyde (Merck, Darmstadt, Germany) (pH7) for 5 min at room temperature (RT). The fixation reaction was stopped by adding 0.4M glycine (Sigma-Aldrich) and washing the cells in RPMI-10% FCS. Additionally, reactivity towards human SAg protein (QBiologicals, Eurofins Amatsigroup, Ghent, Belgium) was measured to identify cryptic epitopes. After 24 h or 48 h, antigen-induced IFN-γ or IL-2 production (respectively) was measured by ELISA (R&D Systems, Abingdon, UK).
DR3tg or DR2tg mice were immunised subcutaneously in the base of the tail with 50 μg peptide emulsified in CFA (peptide/CFA). Ten days after immunisation, draining lymph nodes (LN) and spleens were harvested. […] At day 7, TCL cells were counted and cultured with fresh APC, peptides and IL-2, all at the same concentrations as above. […]

[2] = biological target: T1, MHC II molecules present on dendritic cells (DC) (Homo sapiens, UniProt P01903+P01911); experiment: In vivo presentation experiment, DR2tg mice; conditions: 100 μg peptide s.c., CD11c+ cells harvested after 2 hours, co-culture 48 hours
T1 construct: from tissue; host or cells: CD11c+ dendritic cells from spleens of DR2tg mice (DRA*0101 and DRB1*1501 cDNAs under a mouse MHCII promoter, no mouse MHC class II)
T1 sequence (P01903 26-254): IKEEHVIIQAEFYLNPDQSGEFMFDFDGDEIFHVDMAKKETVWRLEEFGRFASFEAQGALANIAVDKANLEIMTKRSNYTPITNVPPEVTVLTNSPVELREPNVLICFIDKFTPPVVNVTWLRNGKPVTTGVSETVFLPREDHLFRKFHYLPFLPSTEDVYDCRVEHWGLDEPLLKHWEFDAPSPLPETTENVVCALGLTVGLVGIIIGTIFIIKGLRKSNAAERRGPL
T1 sequence (P01911 30-266): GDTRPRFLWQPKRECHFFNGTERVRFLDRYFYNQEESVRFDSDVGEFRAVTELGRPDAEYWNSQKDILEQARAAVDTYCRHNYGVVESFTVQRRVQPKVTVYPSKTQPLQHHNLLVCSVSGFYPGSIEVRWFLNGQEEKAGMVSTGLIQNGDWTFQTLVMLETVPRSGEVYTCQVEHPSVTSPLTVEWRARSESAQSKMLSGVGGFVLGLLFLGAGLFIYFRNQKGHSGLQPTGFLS
Text: FIG. 14: In vivo presentation protocol. Mice are immunized with peptide/CFA and a T cell line is established. For this, ten days after immunization the LN and spleens are harvested and cultured with different concentrations of peptide; 2×10^6 cells/ml APC+1×10^6 cells/ml CD4^+ cells per well. At day 7 the cells are re-stimulated with fresh APC and the same concentrations of peptide. After 14 to 21 days, CD4^+ cells are isolated from these cultures by magnetic bead isolation. These CD4^+ cells are co-cultured with CD11c^+ (dendritic) cells isolated by magnetic bead isolation from spleens of mice s.c. injected with peptide 2 hours before. Control mice receive a s.c. injection of PBS. After 48 hours, supernatant is collected and cytokine response (IFN-γ) is measured. […]
FIG. 17: In vivo presentation of HIP-9FL nested peptides in DR2 mice. […] After 48 hours, supernatant was collected and IFN-γ production was measured by ELISA. […]
DR3tg or DR2tg mice were injected with 100 μg of peptide in 100 μl PBS subcutaneously (s.c.) in the flank. […] After 48 hours, supernatant of these co-cultures was collected and CD4^+ T cell activation was analysed by IFN-γ ELISA (R&D Systems, Abingdon, UK). In a parallel experiment, CD4^+ T cell responses towards peptide added in vitro were assessed to make sure the T cells recognize the peptides presented by the CD11c^+ cells.

Question: Which results are given for “KKKAFVEQVANVVLKKK-NH2 [HIP-9K1-KKK, KKKAFVEQVANVVLKKK]”?
Answer: behaves as apitope (response to peptide presented by fresh or fixed APC) [1]: behave as apitopes; picked up and presented by MHC II on dendritic cells to peptide-specific T cells (IFN-γ production) [2]: presented by DC to T cells

Source: patent US11542316B2, “S-Arrestin peptides and therapeutic uses thereof” (APITOPE INTERNATIONAL NV, priority 2017, dated 2023)
